Values joined by “and” are separate entries in the source; they are usually repeats but may differ in a detail not shown here. Equal values may be shown once.
System: HOP-62 complex spheroids with HUVEC/MSC, viability
Assay: Anticancer human tumor HOP-62 cell line growth inhibition [RAS];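 note: spheroids exposed to agents for seven days before readout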;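 for viability, T/C: 100% = DMSO vehicle control viability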
Conditions: for viability, T/C: stronger effect = lower value
Text: RAS pathway inhibitors in Combinations in Complex Spheroids
A high-throughput screen of multi-cell type tumor spheroids was designed to identify active combinations of RAS pathway inhibitors and targeted small molecules. Complex spheroids include a stromal component modeled by human endothelial cells (HUVEC) and fibroblasts modeled by human mesenchymal stem cells (MSCs). The concentration ranges selected for each drug and investigational agent were based upon clinically achievable concentrations if the clinical Cmax of the agent was known.
Compounds. The drugs and investigational agents: abemaciclib (NSC768073), cobimetinib (NSC768068), divarasib (GDC6063, NSC841802), docetaxel (NSC628503), GDC-1971 (RLY-1971, NSC841576), gemcitabine (NSC613327), inavolisib (NSC800729), ipatasertib (NSC767898), KB-0742 (NSC834161), MRTX-1133 (NSC836407), osimertinib (NSC779217), RMC-4630 (NSC839698), RMC-6236 (NSC851965), RMC-6291 (NSC852671), Ro-3306 (NSC812927), sapanisertib (NSC764658), SN-38 (NSC673596), staurosporine (NSC755774), SY5609 (NSC837396), and tovorafenib (DAY101, NSC766906), were obtained from the National Cancer Institute (NCI) Developmental Therapeutics Program Chemical Repository. The FDA-approved anticancer drug set is available from the NCI Developmental Therapeutics Program. […] The stock solutions were prepared in dimethyl sulfoxide (DMSO, Sigma-Aldrich, St. Louis, MO, cat. D2650) at 800-fold the tested concentration and stored at -70 degrees C prior to their use. All drugs and investigational agents were tested over a range starting from a high concentration at or near the clinical Cmax and decreasing in half-log increments. If the clinical Cmax for an agent had not been determined, the highest concentration tested was 10 microM.
Cell Culture. All cells were maintained in an incubator at 37 degrees C and 5% CO2 with 95% humidity. The PDC lines were cultured according to standard operating procedures established by the NCI PDMR. All PDCs were thawed and cultured in Matrigel-coated flasks prepared with a working solution of 1X Ham's F-12 nutrient mix, without supplementation (Invitrogen, Waltham, MA, cat. 11765054), 100 U/mL penicillin-streptomycin (Invitrogen, cat. 15140122), and 2.5% Matrigel (Corning Inc., Corning, NY, cat. 354248) for the first three passages. The 362531-283-R-J2-PDC and 782815-120-R-J1-PDC lines were cultured in 6C/Colon 1B media, which includes advanced DMEM/F-12 (Thermo Fisher Scientific, cat. 12634028), 10 mM HEPES (Thermo Fisher Scientific, cat. 15630080), 1X GlutaMAX supplement (Thermo Fisher Scientific, cat. 35050061), 0.1 mg/mL primocin (InvivoGen, San Diego, CA, cat. ant-pm-2), 10% defined fetal bovine serum, heat inactivated (HyClone Laboratories Inc., Logan, UT, cat. SH30070.03HI), 50% L-WRN conditioned media (ATCC, cat. CRL-3276), 1.25 mM N-Acetyl-L-cysteine (Sigma-Aldrich, cat. A9165), 10 mM nicotinamide (Sigma-Aldrich, cat. N0636), 1X B-27 supplement (Thermo Fisher Scientific, cat. 17504044), 1X N-2 supplement (Thermo Fisher Scientific, cat. 17502048), 50 ng/mL human EGF (Thermo Fisher Scientific, cat. PHG0311), and 10 microM Y-27632 dihydrochloride (Tocris Bioscience, cat. 1254). The K12877-001-R-J1-PDC line was cultured in 6I media, which includes all 6C/Colon 1B media plus 10 ng/mL human FGF-10 (PeproTech, cat. 100-26), 1 ng/mL human FGF-2 (PeproTech, cat. 100-18B), 1 µM prostaglandin E2 (Tocris Bioscience, cat. 2296), […] hydrocortisone (Sigma-Aldrich, cat. H4001), and […] bovine insulin (Sigma-Aldrich, cat. I6634). The K86415-001-R-J1-PDC line was cultured in 6D media, which includes all 6C/Colon 1B media components minus the L-WRN conditioned media. The 485176-168-R4-J1-PDC was cultured in PANC media, which includes all 6C/Colon 1B media plus 100 ng/mL human FGF-10 (PeproTech, cat. 100-26), 500 nM SB-431542 (Selleckchem, cat. S1067), and 10 nM gastrin (Tocris Bioscience, cat. 3006). […]

[1] = compound alone, run of 07/09/2024

Row | SMILES | viability, T/C (compound 0.00316 µM) | viability, T/C (compound 0.01 µM) | viability, T/C (compound 0.0316 µM) | IC50 (curve of compound) | viability, T/C (compound 0.003 µM) | viability, T/C (compound 0.00949 µM) | viability, T/C (compound 0.03 µM) | viability, T/C (compound 0.0949 µM) | viability, T/C (compound 0.3 µM) | other results
1 | C=CC(=O)Nc1cc(Nc2nccc(-c3cn(C)c4ccccc34)n2)c(OC)cc1N(C)CCN(C)C | 103% [middle of 4 runs] | 101% [middle of 4 runs] | 108% [middle of 4 runs] | > 1000 nM |  |  |  |  |  | viability, T/C (compound 0.1 µM): 110% [middle of 4 runs]; viability, T/C (compound 0.316 µM): 110% [middle of 4 runs]; viability, T/C (compound 1 µM): 103% [middle of 4 runs]
2 | CC(C)n1nc(-c2ccc3oc(N)nc3c2)c2c(N)ncnc21 | 93.7% [middle of 4 runs] | 98.7% and 65.8% and 66.1% |  |  |  |  |  |  |  | viability, T/C (compound 0.000316 µM): 105% [middle of 4 runs]; viability, T/C (compound 0.001 µM): 97.4% [middle of 4 runs]
3 | CCN1CCN(Cc2ccc(Nc3ncc(F)c(-c4cc(F)c5nc(C)n(C(C)C)c5c4)n3)nc2)CC1 | 103% [middle of 4 runs] | 104% [middle of 4 runs] | 103% [middle of 4 runs] | > 1000 nM |  |  |  |  |  | 
4 | CCc1c2c(nc3ccc(O)cc13)-c1cc3c(c(=O)n1C2)COC(=O)[C@]3(O)CC |  |  |  | 1.34 nM [middle of 4 runs] | 22.4% [middle of 4 runs] | 10.6% [middle of 4 runs] | 7.82% [middle of 4 runs] | 5.87% [middle of 4 runs] | 3.8% [middle of 4 runs] | 
5 | CCn1c(-c2cc(N3CCN(C)CC3)cnc2C(C)OC)c2c3cc(ccc31)-c1csc(n1)CC(NC(=O)C1CC1C)C(=O)N1CCCC(N1)C(=O)OCC(C)(C)C2 (stereo not drawn) |  |  |  |  | 99.9% [middle of 7 runs] | 73.3% [middle of 8 runs] | 52.7% [middle of 8 runs] | 39.1% [middle of 8 runs] | 39.4% [middle of 8 runs] | viability, T/C (compound 0.000949 µM): 117% [middle of 8 runs]; IC50 [1]: 35.9 nM [middle of 8 runs]
6 | CCn1c(-c2cccnc2C(C)OC)c2c3cc(ccc31)N1CCOC(CC(NC(=O)C(C(C)C)N(C)C(=O)C3(F)CCN(C(=O)C#CC(C)(C)N(C)C)CC3)C(=O)N3CCCC(N3)C(=O)OCC(C)(C)C2)C1 (stereo not drawn) |  |  |  |  | 99.7% [middle of 8 runs] | 90.7% [middle of 8 runs] | 90.4% [middle of 8 runs] | 85.9% [middle of 8 runs] | 83.2% [middle of 8 runs] | viability, T/C (compound 0.000949 µM): 107% [middle of 8 runs]; IC50 [1]: > 300 nM
7 | Nc1ccn(C2OC(CO)C(O)C2(F)F)c(=O)n1 (stereo not drawn) | 101% [middle of 4 runs] |  | 13.5% [middle of 4 runs] |  |  |  |  |  |  | viability, T/C (compound 0.1 µM): 9.12% [middle of 4 runs]; viability, T/C (compound 0.316 µM): 9.08% [middle of 4 runs]; viability, T/C (compound 1 µM): 8.33% [middle of 4 runs]
8 | O=C(c1ccc(F)c(F)c1Nc1ccc(I)cc1F)N1CC(O)([C@@H]2CCCCN2)C1 | 102% [middle of 4 runs] | 105% (2×) and 96.9% and 97.5% | 102% [middle of 4 runs] |  |  |  |  |  |  | 

Reference: PubChem BioAssay AID2060892 (Molecular Pharmacology Branch, DTP, NCI, 2025)
